Results: article PMC11477000, “Enantioselective Binding of Proton Pump Inhibitors to Alpha1-Acid Glycoprotein and Human Serum Albumin—A Chromatographic, Spectroscopic, and In Silico Study” (International Journal of Molecular Sciences, 2024)

Assays:
[1] = test system: α1-acid glycoprotein (AGP); assay: HPLC on AGP-based chiral stationary phase (ChromTech Chiral-AGP column); type: binding, human; conditions: 10 mM pH 7 phosphate buffer, 25 °C
Method: HPLC using a protein-based chiral stationary phase is a fully automated method for obtaining rapid information about the binding of compounds to the respective proteins. Enantioseparation occurs in the case of unequal binding constants of the individual enantiomers to the immobilized proteins, thus allowing enantioselective binding to be characterized even when a racemic mixture was injected. As a preliminary step, the enantiospecific binding was investigated on columns containing AGP and HSA in various alcohol:buffer mixtures. A pH 7 phosphate buffer was employed as the aqueous part of the mobile phase, while for the organic part, three different alcohols were evaluated. […]
(§1) Chromatographic measurements were carried out on two separate HPLC systems. The AGP binding study was performed on a Waters 2695e chromatographic system paired with a Waters 2996 PDA detector, controlled by Empower 3 FR5 (Waters Corp., Milford, MA, USA), while the HSA binding study was performed on an Agilent 1100 HPLC system, consisting of an inline degasser (G1322A), a quaternary pump (G1311A), an automatic injector (G1329A) paired with sample thermostat (G1330A), a column thermostat (G1316A), and a diode array detector (G1315A) with Agilent Chemstation B04.03-SP2 software (Agilent, Bronnwald, Germany). For the binding studies, two protein-based chiral stationary phases were utilized. The chromatographic binding study for AGP was conducted on a ChromTech Chiral-AGP column (150 mm × 4.0 mm; ChromTech Ltd., Congleton, UK), while the binding study for HSA was performed on a Daicel Chiralpak HSA column (50 mm × 4.0 mm; Daicel Corp., Osaka, Japan). The detection wavelength was 210 nm for all measurements. The stock solutions of PPIs were prepared at a concentration of 1 mg/mL in MeOH. Subsequent dilutions were prepared using water. The injected samples were mixed and diluted from the stock solutions. The final concentration for the eutomer was 0.2 mg/mL, and for the distomer, it was 0.1 mg/mL. A volume of 2 μL was injected. To mitigate the instability of PPIs in aqueous solutions, the samples were kept at a temperature of 4 °C.

[2] = target: T1, human serum albumin (HSA) (Homo sapiens, UniProt P02768); assay: HPLC on HSA-based chiral stationary phase (Daicel Chiralpak HSA column); type: binding; conditions: HSA column, 25 °C
Method: HPLC using a protein-based chiral stationary phase is a fully automated method for obtaining rapid information about the binding of compounds to the respective proteins. Enantioseparation occurs in the case of unequal binding constants of the individual enantiomers to the immobilized proteins, thus allowing enantioselective binding to be characterized even when a racemic mixture was injected. As a preliminary step, the enantiospecific binding was investigated on columns containing AGP and HSA in various alcohol:buffer mixtures. A pH 7 phosphate buffer was employed as the aqueous part of the mobile phase, while for the organic part, three different alcohols were evaluated.
In the following step, we investigated the effect of changing some other chromatographic conditions on the protein binding. The pH of the aqueous phase influenced the protonation state of both the analyte and the proteins. It should be noted that the pH tolerance of protein-based columns is narrow due to the possible denaturation of proteins. Taking into account the guidelines of the manufacturer, three different pH values were investigated (pH 6, 6.5, and 7) at a 95:5 (v/v%) buffer:IPA eluents ratio [49]. The buffer was uniformly 10 mM phosphate. […] The effect of different buffer constituents was also evaluated. In addition to phosphate buffer, ammonium acetate, ammonium bicarbonate, and sodium citrate were tested and compared under the same conditions.
as §1

[3] = target: T1, human serum albumin (HSA); assay: Displacement chromatography on HSA column with warfarin and ibuprofen as competitors; type: binding; conditions: IPA:10 mM pH 7 phosphate buffer 1:99, 25 °C
Method: For identification of the binding site of HSA, a displacement chromatography and fluorescence displacement study were performed. In the case of chromatography, to the mobile phase, increasing concentrations of the competitors, warfarin and ibuprofen, that are known to bind to specific binding sites on HSA, Sudlow site I and Sudlow site II, respectively, were added. In the case of the fluorescence displacement study, the fluorescence quenching data of the PPI-HSA system in the presence of warfarin and ibuprofen were investigated.
(Chromatographic parameter: Column temperature: 25 °C,
mobile phase: IPA : 10 mM pH 7 sodium phosphate buffer 1:99, flow rate: 0.7 mL/min, detection

[4] = 1% EtOH, 10 mM pH 7 phosphate buffer
[5] = 1% IPA, 10 mM pH 7 phosphate buffer
[6] = 1% MeOH, 10 mM pH 7 phosphate buffer
[7] = 2.5% EtOH, 10 mM pH 7 phosphate buffer
[8] = 2.5% IPA, 10 mM pH 7 phosphate buffer
[9] = 2.5% MeOH, 10 mM pH 7 phosphate buffer
[10] = 5% EtOH, 10 mM pH 7 phosphate buffer
[11] = 5% IPA, 10 mM pH 7 phosphate buffer
[12] = 5% MeOH, 10 mM pH 7 phosphate buffer
[13] = 7.5% EtOH, 10 mM pH 7 phosphate buffer
[14] = 7.5% IPA, 10 mM pH 7 phosphate buffer
[15] = 7.5% MeOH, 10 mM pH 7 phosphate buffer
[16] = 10% EtOH, 10 mM pH 7 phosphate buffer
[17] = 10% IPA, 10 mM pH 7 phosphate buffer
[18] = 10% MeOH, 10 mM pH 7 phosphate buffer
[19] = 12.5% IPA, 10 mM pH 7 phosphate buffer

T1 sequence (P02768 25-609): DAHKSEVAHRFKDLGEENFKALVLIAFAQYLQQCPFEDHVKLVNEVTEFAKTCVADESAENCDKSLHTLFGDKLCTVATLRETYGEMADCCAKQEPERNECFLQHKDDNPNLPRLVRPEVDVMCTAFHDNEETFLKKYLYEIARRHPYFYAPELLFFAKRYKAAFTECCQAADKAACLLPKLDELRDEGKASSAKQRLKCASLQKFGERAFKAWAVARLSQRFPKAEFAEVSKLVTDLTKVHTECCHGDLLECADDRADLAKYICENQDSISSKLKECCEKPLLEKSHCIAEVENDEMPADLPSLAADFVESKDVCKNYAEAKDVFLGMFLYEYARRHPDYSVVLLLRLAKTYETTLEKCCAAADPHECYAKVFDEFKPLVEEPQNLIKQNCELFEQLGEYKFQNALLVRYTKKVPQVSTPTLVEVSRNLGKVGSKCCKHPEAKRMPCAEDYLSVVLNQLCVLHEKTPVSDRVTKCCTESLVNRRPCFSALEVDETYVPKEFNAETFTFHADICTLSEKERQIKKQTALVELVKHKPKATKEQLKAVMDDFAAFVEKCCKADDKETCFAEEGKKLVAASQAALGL

## Cc1c(OCC(F)(F)F)ccnc1C[S+]([O-])c1nc2ccccc2[nH]1 (stereo not shown) [Lansoprazole, lansoprazole]
[1]; 2.5% IPA
  k1 retention factor (first-eluting enantiomer): 15.75
  k2 retention factor (second-eluting enantiomer): 19.61
[1]; 5% EtOH
  k1 retention factor (first-eluting enantiomer): 14.52
  k2 retention factor (second-eluting enantiomer): 18.43
[1]; 5% IPA
  k1 retention factor (first-eluting enantiomer): 6.88
  k2 retention factor (second-eluting enantiomer): 9.12
[1]; 5% MeOH
  k1 retention factor (first-eluting enantiomer): 22.63
  k2 retention factor (second-eluting enantiomer): 28.55
[1]; 7.5% EtOH
  k1 retention factor (first-eluting enantiomer): 8.24
  k2 retention factor (second-eluting enantiomer): 10.64
[1]; 7.5% IPA
  k1 retention factor (first-eluting enantiomer): 4.00
  k2 retention factor (second-eluting enantiomer): 5.28
[1]; 7.5% MeOH
  k1 retention factor (first-eluting enantiomer): 14.63
  k2 retention factor (second-eluting enantiomer): 18.79
[1]; 10% EtOH
  k1 retention factor (first-eluting enantiomer): 5.13
  k2 retention factor (second-eluting enantiomer): 6.62
[1]; 10% IPA
  k1 retention factor (first-eluting enantiomer): 2.67
  k2 retention factor (second-eluting enantiomer): 3.47
[1]; 10% MeOH
  k1 retention factor (first-eluting enantiomer): 9.96
  k2 retention factor (second-eluting enantiomer): 12.56
[1]; 12.5% IPA
  k1 retention factor (first-eluting enantiomer): 1.95
  k2 retention factor (second-eluting enantiomer): 2.47
[1]; 15% EtOH
  k1 retention factor (first-eluting enantiomer): 2.54
  k2 retention factor (second-eluting enantiomer): 3.21
[1]; 15% IPA
  k1 retention factor (first-eluting enantiomer): 1.48
  k2 retention factor (second-eluting enantiomer): 1.83
[1]; 15% MeOH
  k1 retention factor (first-eluting enantiomer): 7.02
  k2 retention factor (second-eluting enantiomer): 8.75
[2]; [4]
  EEO enantiomer elution order: R < S
  Rs resolution: 1.0
  k1 retention factor (first-eluting enantiomer): 10.13
  k2 retention factor (second-eluting enantiomer): 14.32
[2]; [5]
  EEO enantiomer elution order: R < S
  Rs resolution: 1.8
  k1 retention factor (first-eluting enantiomer): 11.17
  k2 retention factor (second-eluting enantiomer): 18.27
[2]; [6]
  EEO enantiomer elution order: R < S
  Rs resolution: 1.0
  k1 retention factor (first-eluting enantiomer): 10.66
  k2 retention factor (second-eluting enantiomer): 15.61
[2]; [7]
  EEO enantiomer elution order: R < S
  Rs resolution: 0.3
  k1 retention factor (first-eluting enantiomer): 6.92
  k2 retention factor (second-eluting enantiomer): 8.39
[2]; [8]
  EEO enantiomer elution order: R < S
  Rs resolution: 1.0
  k1 retention factor (first-eluting enantiomer): 9.26
  k2 retention factor (second-eluting enantiomer): 12.87
[2]; [9]
  EEO enantiomer elution order: R < S
  Rs resolution: 0.8
  k1 retention factor (first-eluting enantiomer): 7.92
  k2 retention factor (second-eluting enantiomer): 10.16
[2]; [10]
  k1 retention factor (first-eluting enantiomer): 5.26
  k2 retention factor (second-eluting enantiomer): 5.26
[2]; [11]
  EEO enantiomer elution order: R < S
  Rs resolution: 0.2
  k1 retention factor (first-eluting enantiomer): 5.79
  k2 retention factor (second-eluting enantiomer): 6.63
[2]; [12]
  EEO enantiomer elution order: R < S
  Rs resolution: 0.2
  k1 retention factor (first-eluting enantiomer): 6.05
  k2 retention factor (second-eluting enantiomer): 7.29
[2]; [13]
  k1 retention factor (first-eluting enantiomer): 4.11
  k2 retention factor (second-eluting enantiomer): 4.11
[2]; [14]
  k1 retention factor (first-eluting enantiomer): 4.37
  k2 retention factor (second-eluting enantiomer): 4.37
[2]; [15]
  k1 retention factor (first-eluting enantiomer): 4.92
  k2 retention factor (second-eluting enantiomer): 4.92
[2]; [16]
  k1 retention factor (first-eluting enantiomer): 3.24
  k2 retention factor (second-eluting enantiomer): 3.24
[2]; [17]
  k1 retention factor (first-eluting enantiomer): 3.45
  k2 retention factor (second-eluting enantiomer): 3.45
[2]; [18]
  k1 retention factor (first-eluting enantiomer): 4.03
  k2 retention factor (second-eluting enantiomer): 4.03
[2]; [19]
  k1 retention factor (first-eluting enantiomer): 2.71
  k2 retention factor (second-eluting enantiomer): 2.71
[2]; acetate buffer, 1% 2-propanol
  Rs resolution: 1.8
[2]; bicarbonate buffer, 1% 2-propanol
  Rs resolution: 1.2
[2]; citrate buffer, 1% 2-propanol
  Rs resolution: 1.9
[2]; phosphate buffer, 1% 2-propanol
  Rs resolution: 1.8

## Cc1c(OCC(F)(F)F)ccnc1C[S@@+]([O-])c1nc2ccccc2[nH]1 [R-lansoprazole, dexlansoprazole]
[3]; ibuprofen 0 mM
  k retention factor: 18.27
[3]; ibuprofen 0.01 mM
  k retention factor: 13.98
[3]; ibuprofen 0.05 mM
  k retention factor: 10.41
[3]; ibuprofen 0.1 mM
  k retention factor: 7.60
[3]; warfarin 0 mM
  k retention factor: 18.27
[3]; warfarin 0.01 mM
  k retention factor: 14.84
[3]; warfarin 0.05 mM
  k retention factor: 12.07
[3]; warfarin 0.1 mM
  k retention factor: 10.51
